The NIST ThermoML archive (doi:10.1021/je050092d)
± gives the expanded uncertainty stated by the source.

Experiment: molar heat capacity at constant pressure
Settings: 101.33 kPa, Vacuum adiabatic calorimetry

CCCCCCCCCCCCCCCCCC(=O)OCC(COC(=O)CCCCCCCCCCCCCCCCC)OC(=O)CCCCCCCCCCCCCCCCC [glycerol trioctadecanoate]
Settings	molar heat capacity at constant pressure [J/K/mol]
214.62 K, Metastable crystal	1110.8 ± 18
215.88 K, Crystal	1037.7 ± 18
217.06 K, Metastable crystal	1127.7 ± 18
218.8 K, Crystal	1044.8 ± 18
219.48 K, Metastable crystal	1147.3 ± 18
221.72 K, Crystal	1048.4 ± 18
221.9 K, Metastable crystal	1157.1 ± 18
224.3 K, Metastable crystal	1170.5 ± 18
224.64 K, Crystal	1057.3 ± 18
226.69 K, Metastable crystal	1185.7 ± 18
227.55 K, Crystal	1067.1 ± 18
229.06 K, Metastable crystal	1200.8 ± 18
230.47 K, Crystal	1080.5 ± 18
231.43 K, Metastable crystal	1217.8 ± 18
233.39 K, Crystal	1094.7 ± 18
233.79 K, Metastable crystal	1238.3 ± 18
236.13 K, Metastable crystal	1256.1 ± 18
236.3 K, Crystal	1107.2 ± 18
238.46 K, Metastable crystal	1271.3 ± 18
239.22 K, Crystal	1121.5 ± 18
240.79 K, Metastable crystal	1288.2 ± 18
242.14 K, Crystal	1134 ± 18
243.1 K, Metastable crystal	1307.8 ± 18
245.06 K, Crystal	1149.1 ± 18
245.41 K, Metastable crystal	1327.4 ± 18
247.71 K, Metastable crystal	1339.9 ± 18
247.98 K, Crystal	1165.2 ± 18
250 K, Metastable crystal	1358.6 ± 18
250.9 K, Crystal	1177.6 ± 18
252.28 K, Metastable crystal	1376.4 ± 18
253.82 K, Crystal	1192.8 ± 18
254.56 K, Metastable crystal	1397.8 ± 18
256.74 K, Crystal	1208 ± 18
256.83 K, Metastable crystal	1413 ± 18
259.09 K, Metastable crystal	1426.4 ± 18
259.67 K, Crystal	1222.2 ± 18
261.34 K, Metastable crystal	1444.2 ± 18
262.6 K, Crystal	1238.3 ± 18
263.59 K, Metastable crystal	1461.1 ± 18
265.53 K, Crystal	1254.3 ± 18
265.83 K, Metastable crystal	1479 ± 18
268.07 K, Metastable crystal	1495 ± 18
268.46 K, Crystal	1271.3 ± 18
270.3 K, Metastable crystal	1515.5 ± 18
271.39 K, Crystal	1285.5 ± 18
272.53 K, Metastable crystal	1532.5 ± 18
274.33 K, Crystal	1301.6 ± 18
274.75 K, Metastable crystal	1553 ± 18
276.96 K, Metastable crystal	1577.9 ± 18
277.27 K, Crystal	1327.4 ± 18
279.18 K, Metastable crystal	1590.4 ± 18
280.21 K, Crystal	1339 ± 18
281.39 K, Metastable crystal	1610 ± 18
283.16 K, Crystal	1355 ± 18
283.59 K, Metastable crystal	1629.6 ± 18
285.8 K, Metastable crystal	1647.5 ± 18
286.11 K, Crystal	1371.1 ± 18
288 K, Metastable crystal	1670.6 ± 18
289.07 K, Crystal	1387.1 ± 18
290.2 K, Metastable crystal	1689.4 ± 18
292.03 K, Crystal	1412.1 ± 18
292.39 K, Metastable crystal	1716.1 ± 18
294.59 K, Metastable crystal	1733 ± 18
294.99 K, Crystal	1428.2 ± 18
296.78 K, Metastable crystal	1763.3 ± 18
297.32 K, Crystal	1434.4 ± 18
297.96 K, Crystal	1448.7 ± 18
298.4 K, Crystal	1436.2 ± 18
298.97 K, Metastable crystal	1787.4 ± 18
299.84 K, Crystal	1454.9 ± 18
300.94 K, Crystal	1466.5 ± 18
301.16 K, Metastable crystal	1815.9 ± 18
301.82 K, Crystal	1473.6 ± 18
303.79 K, Crystal	1492.3 ± 18
304.05 K, Crystal	1488.8 ± 18
305.75 K, Crystal	1508.4 ± 18
306.72 K, Crystal	1514.6 ± 18
307.7 K, Crystal	1523.5 ± 18
308.94 K, Crystal	1529.8 ± 18
309.65 K, Crystal	1536 ± 18
311.17 K, Crystal	1544 ± 18
311.6 K, Crystal	1552.1 ± 18
313.39 K, Crystal	1561 ± 18
313.55 K, Crystal	1569.9 ± 18
315.49 K, Crystal	1579.7 ± 18
315.61 K, Crystal	1576.1 ± 18
317.43 K, Crystal	1598.4 ± 18
317.83 K, Crystal	1598.4 ± 18
319.37 K, Crystal	1627.8 ± 18
320.05 K, Crystal	1624.3 ± 18
321.32 K, Crystal	1642.1 ± 18
322.28 K, Crystal	1645.7 ± 18
323.27 K, Crystal	1659.9 ± 18
324.5 K, Crystal	1666.2 ± 18
325.23 K, Crystal	1682.2 ± 18
326.72 K, Crystal	1692.9 ± 18
327.2 K, Crystal	1700.1 ± 18
328.95 K, Crystal	1713.4 ± 18
329.17 K, Crystal	1721.4 ± 18
351.37 K, Liquid	1971.1 ± 20
353.63 K, Liquid	1975.5 ± 20
355.89 K, Liquid	1981.8 ± 20
358.16 K, Liquid	1986.2 ± 20
360.45 K, Liquid	1992.5 ± 20
362.74 K, Liquid	1997.8 ± 20
365.05 K, Liquid	2004.9 ± 21
367.37 K, Liquid	2007.6 ± 21
369.71 K, Liquid	2015.6 ± 21
